In PubChem BioAssay AID493077 (The Scripps Research Institute Molecular Screening Center, 2011):
Active and inactive are the calls of the source.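 Rule for the calls: active = Zta binding inhibitor with IC50 at or below 10 µM; inactive = IC50 above 10 µM.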

Target: Lytic switch protein BZLF1 (Epstein-Barr virus (strain B95-8)) (UniProt P03206)
Experiment: Zta-ZRE interaction blockers, IC50 testing – biochemical, fluorescence polarization, dose response, assay provider, counter-screen for EBNA-1 inhibitor project, late-stage follow-up (AID 493077)
Conditions: purified Zta, Cy5-ZRE DNA

Lytic switch protein BZLF1 (Epstein-Barr virus (strain B95-8)), sequence (P03206 whole entry, looked up): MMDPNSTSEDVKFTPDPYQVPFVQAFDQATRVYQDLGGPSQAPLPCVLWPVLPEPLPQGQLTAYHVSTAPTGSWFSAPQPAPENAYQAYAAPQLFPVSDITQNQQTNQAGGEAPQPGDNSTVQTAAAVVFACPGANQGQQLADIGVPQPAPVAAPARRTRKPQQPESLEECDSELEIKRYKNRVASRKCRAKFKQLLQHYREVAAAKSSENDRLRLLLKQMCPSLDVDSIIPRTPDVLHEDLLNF

Compound	IC50
Cc1cc(C(=O)CSc2nnnn2C)c(C)n1CC1CCCO1 (stereo not given)	> 111 µM (inactive)
Cc1ccccc1C(=O)Nc1nc2ccc(S(C)(=O)=O)cc2s1	> 111 µM (inactive)
CS(=O)(=O)c1ccc2nc(NC(=O)c3cccc(F)c3)sc2c1	> 111 µM (inactive)
COc1ccccc1C(=O)Nc1nc2ccc(S(C)(=O)=O)cc2s1	> 111 µM (inactive)
Cc1ccc(C(=O)Nc2nc3cc(Br)ccc3s2)cc1C	> 111 µM (inactive)
O=C(CSc1nnnn1-c1ccccc1)c1ccn(CC2CCCO2)c1 (stereo not given)	> 111 µM (inactive)
Cc1cc(C(=O)CSc2nnnn2-c2ccccc2)c(C)n1C	> 111 µM (inactive)
COc1ccc2nc(NC(=O)c3ccc(C)c(C)c3)sc2c1	> 111 µM (inactive)
COc1ccc(-n2nnnc2SCC(=O)c2cc(C)n(CC3CCCO3)c2C)cc1 (stereo not given)	> 111 µM (inactive)
COc1cccc(C(=O)Nc2nc3ccc(S(C)(=O)=O)cc3s2)c1	> 111 µM (inactive)
COc1ccc2sc(NC(=O)c3ccc(C)c(C)c3)nc2c1	> 111 µM (inactive)
CCn1c(C)cc(C(=O)CSc2nnnn2-c2ccccc2)c1C	> 111 µM (inactive)
Cc1ccccc1-n1nnnc1SCC(=O)c1cc(C)n(CC2CCCO2)c1C (stereo not given)	> 111 µM (inactive)
COCCn1c(C)cc(C(=O)CSc2nnnn2-c2ccccc2)c1C	> 111 µM (inactive)
COc1ccc(C(=O)Nc2nc3ccc(S(C)(=O)=O)cc3s2)cc1	> 111 µM (inactive)

Further lines, results first:

IC50	Compound
> 111 µM (inactive)	Cc1ccc(C(=O)Nc2nc3ccc(Br)cc3s2)cc1C
> 111 µM (inactive)	COc1cccc2sc(NC(=O)c3ccc(C)c(C)c3)nc12
> 111 µM (inactive)	Cc1cc(C(=O)CSc2nnnn2-c2ccccc2)c(C)n1Cc1cccs1
> 111 µM (inactive)	CS(=O)(=O)c1ccc2nc(NC(=O)c3ccc(Cl)cc3)sc2c1
> 111 µM (inactive)	Cc1ccc(C(=O)Nc2nc3ccc(S(C)(=O)=O)cc3s2)cc1
> 111 µM (inactive)	Cc1cc(C(=O)CSc2nnnn2-c2cccc(F)c2)c(C)n1CC1CCCO1 (stereo not given)
> 111 µM (inactive)	Cc1ccc(-n2nnnc2SCC(=O)c2cc(C)n(CC3CCCO3)c2C)cc1 (stereo not given)
> 111 µM (inactive)	Cc1cc(C(=O)CSc2nnnn2-c2ccc(Cl)cc2)c(C)n1CC1CCCO1 (stereo not given)
> 111 µM (inactive)	CS(=O)(=O)c1ccc2nc(NC(=O)c3ccccc3Cl)sc2c1
> 111 µM (inactive)	Cc1cccc(C(=O)Nc2nc3ccc(S(C)(=O)=O)cc3s2)c1
> 111 µM (inactive)	Cc1cc(C(=O)CSc2nnnn2C2CC2)c(C)n1CC1CCCO1 (stereo not given)
> 111 µM (inactive)	CS(=O)(=O)c1ccc2nc(NC(=O)c3ccccc3F)sc2c1
> 111 µM (inactive)	Cc1ccc(C(=O)Nc2nc3cc(F)ccc3s2)cc1C
> 111 µM (inactive)	Cc1cccc(-n2nnnc2SCC(=O)c2cc(C)n(CC3CCCO3)c2C)c1 (stereo not given)
> 111 µM (inactive)	CS(=O)(=O)c1ccc2nc(NC(=O)c3cccc(Cl)c3)sc2c1
